Test system: E-selectin-IgG chimera
Settings: 5 mM EDTA; shear stress 1 dyn/cm^2
Experimental: Cells (10^6/ml) were perfused at room temperature through the chamber at a shear stress of 1 dyn/cm^2 in binding medium alone or in the presence of 5 mM EDTA (Erg+EDTA). The number of cells which accumulated and maintained rolling at the end of 1 min of perfusion in two microscopic fields was determined as described in materials and methods. […] After 1 min perfusion, adherent cells were subjected to an abrupt 5-fold increase of shear stress and the number of cells that remained bound for at least 5 sec after the increase of shear was determined. The mean number +/− range of cells accumulated at 1 dyn/cm^2 and of accumulated cells remaining stably bound at 5 dyn/cm^2 on two fields of view are shown for the E48^lo and E48^hi cells. […] Data are representative of four independent experiments.
Cultured IUC cells grown as monolayers were harvested by a 10 min incubation with H/H medium (Hanks Balanced Salt Solution, HBSS (Sigma Israel Chemicals Ltd., Rehovot, Israel), containing BSA (2 mg/ml, fraction V, Sigma) and 10 mM HEPES, pH 7.4), supplemented with 5 mM EDTA at 37 Washed cells were resuspended in the same medium at a concentration of 1×10^7 cells/ml and kept at room temperature until use. Cells were diluted 20 fold into binding medium (H/H supplemented with 2 mM Ca^2+) and immediately perfused through the flow chamber. […]

SMILES: O=C(O)CN(CCN(CC(=O)O)CC(=O)O)CC(=O)O [EDTA]
- adhesive interactions of E48^hi cells with E-selectin coated substrate: eliminated
